# Assay results as given in patent publication US20200276150A1, “PARENTERAL FORMULATIONS OF MACROLIDE ANTIBIOTICS” (Tetard, Inc., priority 2010, published 2020).
# “Also recorded” adds a separate entry of the source.
# Columns and labels:
# [1] = CEM-101 in 60 mM tartaric acid with and without 0.9% NaCl, concentration by HPLC (Examples 3A, 3B); assay type: physicochemical
# Procedure: EXAMPLE 3A. […] On addition of NaCl, the resultant solution went clear on mixing for an hour (53.0 mg/mL by HPLC). […] EXAMPLE 3B. Compositions of CEM-101 in an Unbuffered Solution for Parenteral Administration and Studies in 0.9% NaCl solution (˜8% w/v CEM-101). Approximately 90 mg CEM-101 was dissolved in 1 mL 60 mM tartaric acid pH 2.16 and allowed to mix overnight.
# [2] = Cardiac tissue levels of CEM-101 (statement, no method); details: compared to other macrolides and ketolides
# [3] = QT effects of CEM-101 (statement, no method); details: compared to other macrolides and ketolides
# [4] = tested on: azithromycin-resistant strains; test: Antibacterial activity compared with azithromycin (statement, no method); assay type: cell-based
# [5] = IV administration to monkeys, observation for pain response (Example 10); assay type: in vivo, Cynomolgus monkeys (Macaca fasicularis); details: IV infusion about 90 minutes, 5, 12.5, 25 mg/kg/d
# Procedure: EXAMPLE 10. Pharmacokinetics (PK) in monkeys following IV administration. […] The plasma level of CEM-101 and toxicokinetics at 0-24 hours is measured (venipuncture, predose, then immediately following completion of infusion at 0, 0.5, 1, 4, 8, and 24 hours). Animal body weight is also periodically measured. […] Total dose volume is 15 mL/kg, and intravenous infusion is carried out over about 90 minutes (10 mL/kg/h) via disposable indwelling catheter into one of the brachial and/or saphenous veins. Vein or vein location is changed at least every seven days. Control animals receive vehicle alone. An illustrative formulation is CEM-101 in the following vehicle comprising or consisting essentially of L(+)-tartaric acid, D-mannitol, SWFI, 1N HaOH, and optionally 1-thioglycerol, as described herein. Following dosing, a portion of the animals are immediately euthanized for necropsy evaluation. A “recovery” group is observed for an additional 28 days without dosing, then euthanized for necropsy evaluation. It is appreciated that both monkeys and dogs elicit particular sensitivity to pain, and therefore may be observed for pain response upon administration of the test articles.
# [6] = Saturated solubility of CEM-101 in a range of vehicles (Example 5); assay type: physicochemical; details: for solubility at 72 h: thermodynamic from solid, mixed 72 hours, HPLC
# Procedure: EXAMPLE 5. Solubility of CEM-101 in a Range of Vehicles. […] Additional CEM-101 is added to vehicles which completely solubilized the CEM-101 API within 24 hours. Samples are allowed to mix for a total of 72 hours. Once mixed, the samples are assessed visually, centrifuged and then diluted to appropriate concentration for analysis by HPLC to determine saturated solubility. Without being bound by theory, it is believed herein that the vehicles are in situ salt forming compounds when mixed with CEM-101. Studies were conducted by weighing approximately 1000 mg of each vehicle into a number of vials. A known amount of CEM-101 was then added into each vial and the resulting mixture was mixed on a vortex prior to mixing overnight on a roller mixer.
# [7] = IV administration to dogs, observation for pain response (Example 11); assay type: in vivo, Beagle dogs (Canis familiaris); details: IV infusion about 90 minutes, 5, 10, 15 mg/kg/d
# Procedure: EXAMPLE 11. Pharmacokinetics (PK) in dogs following IV administration. […] The plasma level of CEM-101 and toxicokinetics at 0-24 hours is measured (jugular venipuncture, predose, then immediately following completion of infusion at 0, 0.5, 1, 4, 8, and 24 hours). Animal body weight is also periodically measured. […] Total dose volume is 15 mL/kg, and intravenous infusion is carried out over about 90 minutes (10 mL/kg/h) via disposable indwelling catheter into one of the cephalic and/or saphenous veins. Vein or vein location is changed at least every seven days. Control animals receive vehicle alone. An illustrative formulation is CEM-101 in the following vehicle comprising or consisting essentially of L(+)-tartaric acid, D-mannitol, SWFI, 1N HaOH, and optionally 1-thioglycerol, as described herein. Following dosing, a portion of the animals are immediately euthanized for necropsy evaluation. A “recovery” group is observed for an additional 28 days without dosing, then euthanized for necropsy evaluation. It is appreciated that both monkeys and dogs elicit particular sensitivity to pain, and therefore may be observed for pain response upon administration of the test articles.
# [8] = Excipient compatibility by HS-MCDSC (Example 8); assay type: physicochemical; details: API-excipient binary pair with CEM-101, 1:1 ratio, 30-80° C.
# Procedure: EXAMPLE 8. Determination of Compatibility of Excipients for Lyophilized Pharmaceutical Composition. Excipient compatibility is assessed using high sensitivity multi-cell differential scanning calorimetry (HS-MCDSC). The high sensitivity multi-cell differential scanning calorimeter is an analytical instrument designed to measure heat capacity and changes in heat capacity as a function of temperature.
# Stability (of an individual component) is usually assessed by loading a sample of the material into a cell and measuring the heat-flow as a function of time. The instrument should rapidly detect any degradation processes occurring, and the absence of any heat responses gives confidence that the system under investigation is stable.
# A similar approach can be adopted for testing binary mixtures of the active pharmaceutical ingredient (API) and excipients. […] Any unexpected power change recorded in the drug-excipient mixture indicates a possible interaction between the two components.
# Calorimetric data were recorded using a high sensitivity MCDSC (CSC Model 4100 MCDSC, USA). Samples were run using API alone (ca. 50 mg), excipients alone (ca. 50 mg) and API-Excipient binary pairs (ca. 25 mg:25 mg, 1:1 ratio). Samples were weighed directly into the cells which were sealed with the metal caps provided and a rubber sealing disc to ensure an air-tight seal. Experiments were programmed as follows:
# The MCDSC consists of four cells contained in a loading chamber. The cells 1, 2 and 3 were filled with samples, while the 4th cell is always left empty and run as a blank. Prior to analysis, cells 1 to 3 were run empty with no samples to record the blank results which were then subtracted from subsequent results obtained from samples analysed. Data were recorded every 10 s using the dedicated software package CpCalc. Data analysis was performed using CpCalc and Microsoft Excel.
# The calorimeter records all the events occurring in each of the sample cell. The approach adopted here was to calculate the power-time data obtained for the active and excipients alone. The calculated data is then used to create an ‘expected’ theoretical trace as an average of the signals coming from both API and excipients at a mixture of 1:1 ratio.
# [9] = Freeze drying, visual observation of the cakes (Example 9); assay type: physicochemical; details: for Visual observation of the cake: excipient at its maximum concentration in CEM-101 IV solution, frozen -25° C. 2 h, freeze dried 24 h
# Procedure: 1 mL of CEM-101 IV solution was dispensed into in a clear glass vial, followed by the careful addition of small amounts of the excipient under investigation (either 50 or 100 mg). The solution in the vials were mixed using a vortex mixer and sonicated until a clear solution was observed. The final data is shown below, and reflects the maximum possible amount of each excipient used in the freeze dried formulations. Subsequently, all clear vials were frozen at −25° C. for 2 h. The caps were then removed and the vials were covered with a small tissue paper and placed in the freeze drier for 24 h (in the dark). The cakes were then inspected and the following visual observations detailed in the table below were made.
# Based on the results above, three excipients with no interaction with the API were selected and solutions containing various ratio combinations of the API and excipient were prepared. These solutions were then frozen at −25° C., then lyophilised for 24 h, in the dark. The resultant cakes were then examined visually to determine the integrity of the plugs.
# [10] = Storage of lyophilized cakes at 5° C., 25° C./60% RH and 40° C./75% RH; assay type: physicochemical; details: 7, 13 and 28 days
# Procedure: Cakes were stored at 5° C., 25° C./60% RH and 40° C./75% RH. Samples were evaluated at 7, 13 and 28 days.
# [11] = Solubility of each excipient in CEM-101 IV solution (Example 9); assay type: physicochemical; details: in 1 mL CEM-101 IV solution (50 mg/mL)
# Procedure: EXAMPLE 9. Characterization of properties of excipients for freeze drying to prepare lyophilized pharmaceutical composition. […] The solution in the vials were mixed using a vortex mixer and sonicated until a clear solution was observed. […] The caps were then removed and the vials were covered with a small tissue paper and placed in the freeze drier for 24 h (in the dark).
# [12] = HPLC assay and total impurities of formulations (Example 6); assay type: physicochemical
# Procedure: Turbid samples were centrifuged prior to analysis. Total Impurities are assessed by % HPLC peak area.
Compound,MC-DSC Results (No Interaction/Interaction) [8],Visual observation of lyophilizate ([9]; API:Excipient Ratio 1:1),Visual observation of lyophilizate ([9]; API:Excipient Ratio 1:2),Visual observation of lyophilizate ([9]; API:Excipient Ratio 1:3),Visual observation of lyophilizate ([9]; API:Excipient Ratio 1:4),Visual observation of the cake [9],Cake colour on storage [10],"Conc. (mg/mL), maximum possible amount of excipient giving a clear solution [11] [mg/mL]",also measured
CC[C@H]1OC(=O)[C@@](C)(F)C(=O)[C@H](C)[C@@H](O[C@@H]2O[C@H](C)C[C@H](N(C)C)[C@H]2O)[C@@](C)(OC)C[C@@H](C)C(=O)[C@H](C)[C@H]2N(CCCCn3cc(-c4cccc(N)c4)nn3)C(=O)O[C@]12C [CEM-101],–,–,–,–,–,–,–,–,"Concentration of clear solution by HPLC ([1]; 51.38 mg CEM-101 in 1 mL 60 mM tartaric acid pH 2.16, mixed overnight (5% initial formulation)): 50400 µg/mL; Concentration by HPLC after addition of 0.9% w/v NaCl ([1]; 5% NaCl formulation, clear on mixing for an hour): 53000 µg/mL; Concentration by HPLC after addition of 0.9% w/v NaCl ([1]; 8% NaCl formulation, white lump formed, mixed approx. 2 hours): 3900 µg/mL; solubility ([1]; aqueous buffer, thermodynamic from solid, approx. 90 mg CEM-101 in 1 mL 60 mM tartaric acid pH 2.16, mixed overnight (8% initial formulation), read-out: Saturated solubility by HPLC): 83 mg/mL; Cardiac tissue levels / accumulation [2]: do not accumulate in cardiac tissue; also recorded: do not exhibit high cardiac tissue levels; QT effects / QT prolongation [3]: do not cause QT prologation; also recorded: low QT effects or no QT effects; Activity against azithromycin-resistant strains [4]: active; Potency relative to azithromycin ([4]; more potent than azithromycin): 8-16 times; Pain response upon IV administration [5]: no reaction by the animal was observed; pH of resultant solution ([6]; CEM-101 in 1M Ascorbic Acid (sample 17)): 1.93; pH of resultant solution ([6]; CEM-101 in 1M Methane sulphonic Acid (sample 16)): 0.03; pH of resultant solution ([6]; CEM-101 in 1M Tartaric Acid (sample 19)): 1.27; solubility at 72 h ([6]; pH 0.03, simulated gastric fluid, vehicle 1M Methane sulphonic Acid (sample 16)): 100 mg/mL; solubility at 72 h ([6]; pH 1.27, simulated gastric fluid, vehicle 1M Tartaric Acid (sample 19)): 100 mg/mL; solubility at 72 h ([6]; pH 1.93, simulated gastric fluid, vehicle 1M Ascorbic Acid (sample 17)): 100 mg/mL; solubility at 72 h ([6]; simulated gastric fluid, vehicle 1M Hydrochloric Acid (sample 15)): 100 mg/mL; Pain response upon IV administration [7]: no reaction by the animal was observed"
NCC(=O)O [Glycine],No,Good solid cake- with uniform,Good solid cake- with uniform,Good solid cake- with uniform,Good solid cake- with uniform,Good solid cake-,remained white,–,MC-DSC Results (No Interaction/Interaction) ([8]; listed as glycine): compatible
OC[C@@H](O)[C@@H](O)[C@H](O)[C@H](O)CO [Mannitol],No,Good solid cake- with uniform,Good solid cake- with uniform,Good solid cake- with uniform,Good solid cake- with uniform,Good solid cake-,remained white,200,MC-DSC Results (No Interaction/Interaction) ([8]; listed as mannitol): compatible
CC[C@H]1OC(=O)[C@@](C)(F)C(=O)[C@H](C)[C@@H](O[C@@H]2O[C@H](C)C[C@H](N(C)C)[C@H]2O)[C@@](C)(OC)C[C@@H](C)C(=O)[C@H](C)[C@H]2N(CCCCn3cc(-c4cccc(N)c4)nn3)C(=O)O[C@]12C [Preformulation],–,–,–,–,–,–,–,–,Total Impurities [12]: 2.34 % HPLC peak area
OC[C@H]1O[C@@](CO)(O[C@H]2O[C@H](CO)[C@@H](O)[C@H](O)[C@H]2O)[C@@H](O)[C@@H]1O [Sucrose],No,Good solid cake- with uniform,Good solid cake- with uniform,Good solid cake- with uniform,Good solid cake- with uniform,–,Some cake yellowing,–,MC-DSC Results (No Interaction/Interaction) ([8]; listed as sucrose): compatible
OC[C@H]1O[C@H](O[C@H]2O[C@H](CO)[C@@H](O)[C@H](O)[C@H]2O)[C@H](O)[C@@H](O)[C@@H]1O [Trehalose],Interaction,–,–,–,–,Poor cake-puffing,–,700,–
Isomalt,Interaction,–,–,–,–,Good solid cake-,–,600,–
